Assay [1] has as its target T1, ZmEPSPS (Zea mays, UniProt A0A1D6NVZ6).
T1 sequence (A0A1D6NVZ6 63-506): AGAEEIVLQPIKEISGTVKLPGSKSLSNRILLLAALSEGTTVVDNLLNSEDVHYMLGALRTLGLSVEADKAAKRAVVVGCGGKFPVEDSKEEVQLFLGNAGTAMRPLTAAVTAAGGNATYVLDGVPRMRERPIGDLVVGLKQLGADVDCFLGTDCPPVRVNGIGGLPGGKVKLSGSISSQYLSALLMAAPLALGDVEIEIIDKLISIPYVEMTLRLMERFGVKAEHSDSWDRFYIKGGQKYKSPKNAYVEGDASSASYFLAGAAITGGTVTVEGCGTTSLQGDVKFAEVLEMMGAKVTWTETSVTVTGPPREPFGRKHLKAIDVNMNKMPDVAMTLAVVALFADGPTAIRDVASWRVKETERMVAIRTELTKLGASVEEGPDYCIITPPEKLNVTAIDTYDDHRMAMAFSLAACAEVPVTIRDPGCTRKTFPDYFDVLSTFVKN
The assay can be described thus: EPSPS enzyme activity assay, glyphosate titration. It counts as biochemical.

The target in assay [2] is T2, ZmEPSPS (Zea mays, UniProt A0A1D6NVZ6, P168A/T164I).
T2 sequence (A0A1D6NVZ6 63-506 T164I/P168A): T1 sequence (A0A1D6NVZ6 63-506) with T102I, P106A
The assay can be described thus: EPSPS enzyme activity assay, glyphosate titration. It counts as biochemical.

Numbering of substitutions follows the chain as printed.

As for `O=C(O)CNCP(=O)(O)O` [glyphosate], the IC50 against ZmEPSPS [1] was 0.0139 ± 0.0035 mM; at ZmEPSPS [2], 19.5 ± 2.8 mM.

These data come from publication PMC5901408 (Pest Management Science, 2017).
